The record followed here is patent publication US11773087B2, “GLP-1R receptor agonist compound and use thereof” (SUZHOU VINCENTAGE PHARMA CO., LTD, priority 2020, dated 2023).

The target in one data set is T1, human GLP-1R receptor (Homo sapiens, UniProt P43220).
T1 construct: expressed in transfected cells; host or cells: 'GLP-1R cells' (frozen vial)
Briefly: GLP-1R cAMP assay (HTRF, HEK293 cells expressing GLP-1R). The following applies: agonistic activity, GLP-1R HEK293 cells. It counts as cell-based. As for the experimental part:
Test Embodiment 1: Activity Test of GLP-1R cAMP Assay
This experiment aims to verify the agonistic activity of the compound of the present disclosure on human GLP-1R receptor.
Compounds were diluted 4-fold starting at 100 μM from DMSO using Bravo for a total of 10 points.
The reference compound polypeptide GLP-1 (7-37) was diluted 4-fold starting from 500 nM in DMSO using Bravo for a total of 10 points.
b) Preparation of Cell Suspension: • 1) 1 vial of GLP-1R cells was quickly thawed in a 37° C. water bath. • 2) The suspension of the cells was transferred to 10 mL of HBSS in a 15 mL conical tube. • 3) The cells were centrifuged at 1000 rpm for 5 min at room temperature to precipitate the cells. • 4) The supernatant was gently aspirated, and being careful not to aspirate the cells. • 5) The cells were relaxed by flicking the precipitation, and then the cell precipitation was re-suspended in 10 mL of HBSS. A sterile pipette was used to move fluid up and down to remove clumps. • 6) The concentration of cells was counted and the cell viability on Vi-cell was determined. • 7) GLP-1R cells were re-suspended in the test buffer at a concentration of 2.0×E5/mL cells. • 8) 10 μL of GLP-1R cell was transferred to OptiPlate-384 well plate.
c) Transfer of Compound: • 1) 100 nL of compound was transferred to OptiPlate-384 plate using Echo Transfer. • 2) The plate was rotated at 1000 rpm for 5 seconds.
d) HTRF cAMP Analysis of Agonists: • 1) The plate was incubated at room temperature for 30 minutes before adding detection reagents. • 2) An electric multi-channel pipette was used to add 10 μL of detection reagents respectively. • 3) The 384 well plate was covered with TopSeal-A membrane and incubated for 60 min at room temperature.
TopSeal-A was unloaded and read on EnVision.

A short description of data set [1]: Pharmacokinetic evaluation in rats (gavage). The following applies: rat, 10 mg/kg single oral gavage, plasma. The data set is classed as in vivo. As for the experimental part: Test Embodiment 2: Pharmacokinetic Evaluation in Rats
The drug concentrations in the plasma of rats were tested at different times after the administration of the compounds by gavage using rats as test animals. The pharmacokinetic behavior of the compounds of the present disclosure in rats was studied and their pharmacokinetic characteristics were evaluated. In each group of embodiments, 3 rats with similar body weight were selected and administered orally at a dose of 10 mg/kg for a single administration. Blood was collected from animals at 15 min, 30 min, 1 h, 2 h, 4 h, 6 h, 8 h, 12 h, 24 h time points after administration. The LC-MS/MS analysis method was used to detect the content of the compound in plasma, and the lower limit of quantification of the method was 20 ng/mL. Concentration data in plasma was counted using the metabolic kinetic data analysis software WinNonlin 7.0, and the pharmacokinetic parameters were calculated using the non-compartmental analysis (NCA), as shown in Table 2 below.
Drug configuration: A certain amount of drug was taken, added with 2% Klucel LF+0.1% Tween 80 aqueous solution to prepare a clear solution or a uniform suspension.
Administration: Rats were administered by gavage after overnight fasting at a dose of 10 mg/kg.
Operation: Rats were administered by gavage, and blood was collected from the tail vein before administration and 15 min, 30 min, 1 h, 2 h, 4 h, 6 h, 8 h, 12 h, 24 h after administration, placed in heparinized sample tubes, centrifuged at 4° C., 3500 rpm for 10 min to separate plasma, stored at −20° C., and fed 2 hours after administration.
Determination of the content of test compounds in rat plasma after drug administration by gavage: 50 μL of plasma samples were thawed at room temperature, added with 130 μL of internal standard working solution (1000 ng/mL, acetonitrile, tolbutamide), vortexed for about 1 min and then centrifuged for 10 min at 4° C. and 13000 rpm. 50 μL of supernatant was mixed with 100 μL of 50% acetonitrile in water, and then the sample was injected for LC/MS/MS analysis.

Some results are limits rather than exact numbers.

T1 sequence (P43220 24-463): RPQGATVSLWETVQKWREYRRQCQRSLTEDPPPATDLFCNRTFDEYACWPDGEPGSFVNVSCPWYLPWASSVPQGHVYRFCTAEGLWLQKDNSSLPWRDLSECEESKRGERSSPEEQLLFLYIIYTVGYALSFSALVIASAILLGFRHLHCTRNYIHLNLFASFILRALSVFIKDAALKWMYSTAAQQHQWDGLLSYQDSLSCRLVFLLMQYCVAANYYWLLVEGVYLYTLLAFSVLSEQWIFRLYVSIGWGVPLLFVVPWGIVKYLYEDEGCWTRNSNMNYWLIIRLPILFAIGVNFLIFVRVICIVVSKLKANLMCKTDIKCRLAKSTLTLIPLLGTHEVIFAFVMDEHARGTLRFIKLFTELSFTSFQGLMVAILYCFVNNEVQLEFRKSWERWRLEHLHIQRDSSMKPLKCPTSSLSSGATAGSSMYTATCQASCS

As to `N#Cc1ccc(COc2ccccc2C2CCN(Cc3nc4ccc(C(=O)O)cc4n3C[C@@H]3CCO3)CC2)c(F)c1` [Compound 1], the EC50 at human GLP-1R receptor is 3.4 nM. Molecule `N#Cc1ccc(COc2c(F)cccc2C2CCN(Cc3nc4ccc(C(=O)O)cc4n3C[C@@H]3CCO3)CC2)c(F)c1` [Compound 2] yielded an EC50 at human GLP-1R receptor of 0.8 nM. As to `O=C(O)c1ccc2nc(CN3CCC(c4cccc(F)c4OCc4ccc(Cl)cc4F)CC3)n(C[C@@H]3CCO3)c2c1` [Compound 4], in data set [1], the AUC(0-inf) amounted to 417 ng·h/mL, the Cmax came to 90 ng/mL, the time of peak concentration (Tmax) turned out to be 0.83 h and the half-life was 2.11 h. This molecule had an EC50 on human GLP-1R receptor of 0.7 nM. `COc1cccc(C2CCN(Cc3nc4ccc(C(=O)O)cc4n3C[C@@H]3CCO3)CC2)c1OCc1ccc(Cl)cc1F` [Compound 5]: on human GLP-1R receptor, the response was half-maximal at 15 nM (EC50). In the case of `O=C(O)c1ccc2nc(CN3CCC(c4c(F)cccc4OCc4ccc(Cl)cc4F)CC3)n(C[C@@H]3CCO3)c2c1` [Compound 6], at human GLP-1R receptor, the EC50 was 8.1 nM. In turn, `O=C(O)c1ccc2nc(CN3CCC(c4cccc(F)c4OCc4ccccc4F)CC3)n(C[C@@H]3CCO3)c2c1` [Compound 7] came in with an EC50 at human GLP-1R receptor of 5 nM. On the same count and under the same terms, the result for `O=C(O)c1ccc2nc(CN3CCC(c4ccccc4OCc4ccc(F)cc4F)CC3)n(C[C@@H]3CCO3)c2c1` [Compound 8] reads 3.2 nM; that for `O=C(O)c1ccc2nc(CN3CCC(c4ccccc4OCc4ccc(Cl)cn4)CC3)n(C[C@@H]3CCO3)c2c1` [Compound 9], 34.8 nM; that for `CC(Oc1ccccc1C1CCN(Cc2nc3ccc(C(=O)O)cc3n2C[C@@H]2CCO2)CC1)c1ccc(Cl)cc1F` (some centres unmarked) [Compound 10], 26 nM.

`O=C(O)c1ccc2nc(CN3CCC(c4ccccc4OCc4ccc(Cl)cc4Cl)CC3)n(C[C@@H]3CCO3)c2c1` [Compound 11] came in with an EC50 at human GLP-1R receptor of 2.9 nM. As for `Cc1ccc(COc2ccccc2C2CCN(Cc3nc4ccc(C(=O)O)cc4n3C[C@@H]3CCO3)CC2)c(F)c1` [Compound 12], in data set [1], the AUC(0-inf) was found to be 1320 ng·h/mL, the Cmax came to 1020 ng/mL, the time of peak concentration (Tmax) was 0.25 h and the half-life was 2.68 h. The concentration for a half-maximal effect (EC50) at human GLP-1R receptor is 1 nM.

Regarding `O=C(O)c1ccc2nc(CN3CCC(c4ccc(F)cc4OCc4ccc(Cl)cc4F)CC3)n(C[C@@H]3CCO3)c2c1` [Compound 13], the EC50 on human GLP-1R receptor was determined as 5.8 nM. Same read-out and setting: the result for `O=C(O)c1ccc2nc(CN3CCC(c4cc(F)ccc4OCc4ccc(Cl)cc4F)CC3)n(C[C@@H]3CCO3)c2c1` [Compound 14] reads 3.7 nM. Same read-out and setting: with `O=C(O)c1ccc2nc(CN3CCC(c4ccccc4NCc4ccc(Cl)cc4F)CC3)n(C[C@@H]3CCO3)c2c1` [Compound 15] the figure was 7.5 nM; with `CN(Cc1ccc(Cl)cc1F)c1ccccc1C1CCN(Cc2nc3ccc(C(=O)O)cc3n2C[C@@H]2CCO2)CC1` [Compound 16], greater than 100 nM.

Molecule `O=C(O)c1ccc2nc(CN3CCC(c4ccccc4SCc4ccc(Cl)cc4F)CC3)n(C[C@@H]3CCO3)c2c1` [Compound 17] yielded an EC50 at human GLP-1R receptor of 53 nM. The same measure, in the same setting: with `O=C(O)c1ccc2nc(CN3CCN(c4ccccc4OCc4ccc(Cl)cc4F)CC3)n(C[C@@H]3CCO3)c2c1` [Compound 18] the figure was 10.7 nM; with `O=C(O)c1ccc2nc(CC3CCN(c4ccccc4OCc4ccc(Cl)cc4F)CC3)n(C[C@@H]3CCO3)c2c1` [Compound 19], greater than 100 nM; with `O=C(O)c1ccc2nc(Cc3ccc(-c4ccccc4OCc4ccc(Cl)cc4F)cc3)n(C[C@@H]3CCO3)c2c1` [Compound 20], 24.6 nM. Same read-out and setting: the result for `O=C(O)c1ccc2nc(CC3CCC(c4ccccc4OCc4ccc(Cl)cc4F)CC3)n(C[C@@H]3CCO3)c2c1` (some centres unmarked) [Compound 21] reads greater than 100 nM; that for `O=C(O)c1ccc2nc(CN3CCC(c4ccccc4OCc4ccc(Cl)cc4F)CC3)n(C[C@@H]3CCO3)c2n1` [Compound 22], 2.1 nM; that for `O=C(O)c1ccc2nc(C3(N4CCC(c5ccccc5OCc5ccc(Cl)cc5F)CC4)CC3)n(C[C@@H]3CCO3)c2c1` [Compound 23], greater than 100 nM.

For the molecule `Cn1c(CN2CCC(c3ccccc3OCc3ccc(Cl)cc3F)CC2)nc2ccc(C(=O)O)cc21` [Compound 24], on human GLP-1R receptor, the EC50 was greater than 100 nM. On the same count and under the same terms, the result for `CCn1cncc1Cn1c(CN2CCC(c3ccccc3OCc3ccc(Cl)cc3F)CC2)nc2ccc(C(=O)O)cc21` [Compound 25] reads greater than 100 nM; that for `[2H]C([2H])(Oc1ccccc1C1CCN(Cc2nc3ccc(C(=O)O)cc3n2C[C@@H]2CCO2)CC1)c1ccc(Cl)cc1F` [Compound 26], 1.8 nM; that for `[2H]C([2H])(c1nc2ccc(C(=O)O)cc2n1C[C@@H]1CCO1)N1CCC(c2ccccc2OCc2ccc(Cl)cc2F)CC1` [Compound 27], 2.3 nM. Same read-out and setting: with `CC1(c2ccccc2OCc2ccc(Cl)cc2F)CCN(Cc2nc3ccc(C(=O)O)cc3n2C[C@@H]2CCO2)CC1` [Compound 28] the figure was greater than 100 nM; with `CC1CN(Cc2nc3ccc(C(=O)O)cc3n2C[C@@H]2CCO2)CCC1c1ccccc1OCc1ccc(Cl)cc1F` (some centres unmarked) [Compound 29], greater than 100 nM; with `CC1CN(Cc2nc3ccc(C(=O)O)cc3n2C[C@@H]2CCO2)CC(C)C1c1ccccc1OCc1ccc(Cl)cc1F` (some centres unmarked) [Compound 30], greater than 100 nM. For the molecule `O=C(O)c1ccc2nc(CN3CCC(c4cccc(OCc5ccc(Cl)cc5F)n4)CC3)n(C[C@@H]3CCO3)c2c1` [Ref-01, reference compound], in data set [1], the AUC(0-inf) is 351 ng·h/mL, the highest level (Cmax) was 105 ng/mL, the Tmax stood at 0.33 h and the half-life is 3.2 h. Further, the EC50 at human GLP-1R receptor was 1 nM. The corresponding values for `O=C(O)c1ccc2nc(CN3CCC(c4cccnc4OCc4ccc(Cl)cc4F)CC3)n(C[C@@H]3CCO3)c2c1` [Ref-02, reference compound] are 229 ng·h/mL, 171 ng/mL, 0.25 h, 5.52 h and 1 nM.

By EC50 is commonly meant the concentration at which the effect is half-maximal. A high value points to a less potent agent. The AUC(0-inf) is total exposure, with the tail of the curve extrapolated. What is called Cmax is the highest concentration seen after dosing. In general, Tmax refers to the time at which the peak concentration occurs. A word on the half-life: it is how long it takes for the measured level to halve. Low readings indicate fast loss, high ones slow loss.
